Literature values, collected in patent publication US20090118352A1, “Broad spectrum microbicidal and spermicidal compositions and methods” (ESAWTECH, LTD., priority 2007, published 2009).

How the values were obtained:
HIV [1] = details: clinical trial in women, stopped 2007
HIV [2] = details: phase III trial
[3] = tested on: epithelial cells in the vagina

Substance | HIV infections, active group versus placebo group (HIV [1]) | HIV transmission rate versus placebo (HIV [2]; N-9 group) | efficacy in preventing HIV transmission (HIV [2]; UN Joint Programme on HIV/AIDS, 2002) | effect on epithelial cells in the vagina [3]
cellulose sulfate | higher number of HIV infections in the active group compared with the placebo group |  |  | 
NONOXYL-9 [N-9] |  | marginally higher | no efficacy | can disrupt epithelial cells in the vagina
